In assay [1] the test system is MOLT-3. The assay can be described thus: Antitumor activity against human MOLT3 cells in absence of Penicillin-G-amidase after 72 hrs by XTT assay. Format: functional, cell-based. The following applies: MOLT-3, 72 h.
For assay [2], the system named is MOLT-3. The assay can be described thus: Antitumor activity against human MOLT3 cells in presence of Penicillin-G-amidase after 72 hrs by XTT assay. It is filed as functional, cell-based. As to conditions: MOLT-3, 72 h.

Structures are written as SMILES.

Consider `O=C(Cc1ccccc1)Nc1ccc(COC(=O)Nc2c(COC(=O)NC(Cc3ccc(N(CCCl)CCCl)cc3)C(=O)O)cc(COC(=O)NC(C(=O)O)c3ccc(N(CCCl)CCCl)cc3)cc2COC(=O)NC(Cc2ccc(N(CCCl)CCCl)cc2)C(=O)O)cc1` (stereo not given), for which the half-maximal inhibitory concentration (IC50) with MOLT-3 [1] came out at 100 µM; in the assay on MOLT-3 [2], 0.5 µM. For the compound `CN(CCN(C)C(=O)Oc1c(COC(=O)NC(Cc2ccc(N(CCCl)CCCl)cc2)C(=O)O)cc(COC(=O)NC(C(=O)O)c2ccc(N(CCCl)CCCl)cc2)cc1COC(=O)NC(Cc1ccc(N(CCCl)CCCl)cc1)C(=O)O)C(=O)OCc1ccc(NC(=O)Cc2ccccc2)cc1` (stereo not given), the results for the half-maximal inhibitory concentration (IC50) in the assay with MOLT-3 [1] and with MOLT-3 [2] were 100 µM and 6 µM, respectively. Consider `N[C@@H](Cc1ccc(N(CCCl)CCCl)cc1)C(=O)O` [MELPHALAN], for which the concentration for half-maximal inhibition (IC50) in the assay with MOLT-3 [2] turned out to be 0.3 µM.

The values are drawn from ChEMBL document CHEMBL1147966, “Remarkable drug-release enhancement with an elimination-based AB3 self-immolative dendritic amplifier” (Bioorg Med Chem, 2007).
